We go through 1 compound from PMC7708446, “^18F-meta-fluorobenzylguanidine (^18F-mFBG) to monitor changes in norepinephrine transporter expression in response to therapeutic intervention in neuroblastoma models” (Scientific Reports, 2020).

Each structure is given as a SMILES string.

Data set [1] can be described thus: Biodistribution and PET statements pooled over Kelly and SK-N-BE(2)C xenograft-bearing mice. The data set is classed as in vivo. To be noted: 1 h p.i. How it is done: When the tumours reached approximately 100–200 mm^3, mice were anaesthetised with an isoflurane/O2 mixture (1.5–2.0% v/v) and intravenously injected with either ^18F-mFBG (~ 7.5 MBq) or ^123I-mIBG (~ 20 MBq). Mice were then imaged using an Albira PET/SPECT/CT scanner (Bruker, Coventry, UK). […] Acquisition, reconstruction and image analysis were performed as described previously. Following the final scan, the mice were sacrificed and the major organs were excised, weighed and their associated radioactivity was measured using a γ-counter. Biodistribution and image quantification were expressed as a percentage of injected dose per gram of tissue (%ID/g), whereby 1 cm^3 on PET acquisitions were assumed to equal 1 g (n ≥ 3 mice ± SD).

Data set [2] deals with Kelly xenografts. As to the kind of experiment: PET quantification of tumour uptake, Kelly xenografts. Format: in vivo, mice. How it is done: When the tumours reached approximately 100–200 mm^3, mice were anaesthetised with an isoflurane/O2 mixture (1.5–2.0% v/v) and intravenously injected with either ^18F-mFBG (~ 7.5 MBq) or ^123I-mIBG (~ 20 MBq). Mice were then imaged using an Albira PET/SPECT/CT scanner (Bruker, Coventry, UK). Whole body PET static images were acquired after 1 and 4 h post-injection (p.i.) for 10 min with an energy window of 358 to 664 keV followed by CT acquisition. Acquisition, reconstruction and image analysis were performed as described previously. Following the final scan, the mice were sacrificed and the major organs were excised, weighed and their associated radioactivity was measured using a γ-counter. Biodistribution and image quantification were expressed as a percentage of injected dose per gram of tissue (%ID/g), whereby 1 cm^3 on PET acquisitions were assumed to equal 1 g (n ≥ 3 mice ± SD).

In data set [3] the target is T1, NET-1 (Homo sapiens, UniProt P23975).
T1 construct: SK-N-SH, SK-N-BE(2)C, Kelly, NBLS human NB cell lines; endogenous in cells; host or cells: SK-N-SH, SK-N-BE(2)C, Kelly, NBLS human neuroblastoma cell lines
T1 sequence (P23975 whole entry): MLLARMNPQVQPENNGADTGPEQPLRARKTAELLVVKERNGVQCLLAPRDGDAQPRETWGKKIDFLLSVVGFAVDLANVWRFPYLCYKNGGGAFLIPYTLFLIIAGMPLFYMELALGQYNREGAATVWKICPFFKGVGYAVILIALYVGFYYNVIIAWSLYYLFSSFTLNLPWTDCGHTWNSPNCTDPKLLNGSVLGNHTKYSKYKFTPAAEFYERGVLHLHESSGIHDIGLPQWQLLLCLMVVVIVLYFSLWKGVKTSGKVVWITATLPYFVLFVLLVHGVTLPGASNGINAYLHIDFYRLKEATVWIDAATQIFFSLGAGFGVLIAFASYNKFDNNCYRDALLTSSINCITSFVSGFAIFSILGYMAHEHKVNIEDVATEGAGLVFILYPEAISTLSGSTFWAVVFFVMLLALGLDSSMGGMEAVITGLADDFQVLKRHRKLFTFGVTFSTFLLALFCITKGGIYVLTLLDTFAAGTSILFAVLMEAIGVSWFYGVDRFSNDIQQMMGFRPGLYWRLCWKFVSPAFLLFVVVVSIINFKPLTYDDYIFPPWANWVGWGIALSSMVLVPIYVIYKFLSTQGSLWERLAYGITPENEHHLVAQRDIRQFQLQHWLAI
As to the kind of experiment: ^18F-mFBG / ^123I-mIBG uptake in NB cell lines with and without desipramine. Format: cell-based. Particulars: 1 h at 37 °C, rank among Kelly, SK-N-SH, NBLS. From the text: Figure 1 (a) Simplified radiosynthesis scheme of ^18F-mFBG by copper-mediated deborylation. (b) Total NET-1 protein expression in selected NB cell lines determined by Western blot. Full length blots are presented in Supplementary Figure WB1. […] Data are presented as mean ± SEM, n ≥ 2 per group, performed in triplicate. Graphs are generated using GraphPad Prism (v 8.4.1), https://www.graphpad.com.
For each cell line the cell-associated radioactivity was normalised to the number of cells and then each group was presented as a percentage of the signal acquired for SK-N-BE(2)C cells (mean of n = 3 independent experiments performed in triplicate ± SEM).

For the compound `N=C(N)NCc1cccc([18F])c1` [^18F-mFBG, ^18F-meta-fluorobenzylguanidine], in data set [1], the “radiotracer uptake, brown adipose tissue (BAT)” value was more than 7.0 %ID/g; the “radiotracer uptake, heart” value is on record as more than 12.0 %ID/g; the “radiotracer uptake, small intestine” value is recorded as ~ 8.0 %ID/g. The compound further displayed a PET tumour uptake in data set [2] (1 h p.i., n = 9) of 1.10 ± 0.34 %ID/g. This compound also displayed a PET tumour uptake in data set [2] (4 h p.i., n = 5) of 0.65 ± 0.29 %ID/g. Moreover, the “cell-associated radioactivity, SK-N-BE(2)C” value in data set [3] is “greatest uptake”. The “cell-associated radioactivity, Kelly” value in data set [3] (SK-N-BE(2)C) was “least uptake”.
